# Where “and” joins values, the source holds several entries; their conditions need not be identical. Identical values can stand only once.
# Assays:
# C. elegans [1] = assay: C. elegans motor phenotype scoring on solid media (Punc/jerky-unc, coiled, paralyzed), wild-type young adults; format: in vivo, Caenorhabditis elegans; conditions: for atypical locomotion (number of animals) / coiled (number of animals) / no phene (number of animals) / paralyzed (number of animals) / any phene: mean % fraction of young adults exhibiting any phenotype (coiled, jerky-Unc or paralyzed): one hour; for atypical locomotion (number of animals) / coiled (number of animals) / no phene (number of animals) / paralyzed (number of animals): young adults, 20 animals per trial, single technical replicate; for any phene: mean % fraction of young adults exhibiting any phenotype (coiled, jerky-Unc or paralyzed): mean of three biological replicates; for EC50: Caenorhabditis elegans, any motor phenotype after 1 h on solid media, ± 95% CI, read-out: C. elegans - motor disruption EC50
# Pristionchus pacificus = Pristionchus pacificus motor disruption dose-response on solid media, 1 h; conditions: for mean % any phene (coiled, jerky-Unc or paralyzed): Pristionchus pacificus young adults; for mean % any phene (coiled, jerky-Unc or paralyzed) / mean % any phene: mean of three biological replicates; for EC50: Pristionchus pacificus, 1 h, read-out: P. pacificus motor disruption EC50; for mean % any phene: any phenotype (coiled, jerky-Unc or paralyzed) at one hour; for rep 1 atypical locomotion / rep 1 coiled / rep 1 no phene / rep 1 paralyzed / rep 2 atypical locomotion / rep 2 coiled / rep 2 no phene / rep 2 paralyzed / rep 3 atypical locomotion / rep 3 coiled / rep 3 no phene / rep 3 paralyzed: count of 20 animals per trial, one hour
# [2] = tested on: Dirofilaria immitis microfilariae; assay: Dirofilaria immitis microfilariae immobility assay (DiroImager, 72 h); conditions: for % effect (motility), DIROIM MF: Dirofilaria immitis microfilariae; for EC50: Dirofilaria immitis, 72 h, read-out: Dirofilaria immitis filariae EC50
# Summary of the method: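 About 250 freshly purified microfilariae of the Missouri isolate per well in supplemented RPMI 1640, exposed to compound for 72 h. Motility scored by automated whole-plate optical imaging; medium with 1% DMSO as negative control.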
# [3] = tested on: Dirofilaria immitis L3/L4; assay: Dirofilaria immitis L3/L4 motility assay (DiroImager, 72 h); conditions: Dirofilaria immitis L4
# C. elegans [4] = assay: Suppression of trichlorfon (AChE inhibitor) paralysis, double dose-response, scored after 80 min; format: in vivo, Caenorhabditis elegans; conditions: for EC50: Caenorhabditis elegans, ± 95% CI; for % para (percentage of animals able to adopt a clear sinusoidal wave pattern upon touch on the nose): wild-type, bio rep 1-3
compound,measurement,setting,value
O=[N+]([O-])c1ccc(N2CCN(C3CCCC3)CC2)cc1 [Nemacol-61],atypical locomotion (number of animals),C. elegans [1]; 3.75uM,0 and 1
same,coiled (number of animals),C. elegans [1]; 3.75uM,0 and 17 and 13
same,no phene (number of animals),C. elegans [1]; 3.75uM,20 and 19 and 3 and 7
same,paralyzed (number of animals),C. elegans [1]; 3.75uM,0
same,"any phene: mean % fraction of young adults exhibiting any phenotype (coiled, jerky-Unc or paralyzed)",C. elegans [1]; 3.75uM,25.8333%
same,atypical locomotion (number of animals),C. elegans [1]; 15uM,10 and 13 and 12 and 2 and 4
same,coiled (number of animals),C. elegans [1]; 15uM,0 and 1 and 2 and 18 and 16
same,no phene (number of animals),C. elegans [1]; 15uM,8 and 7 and 5 and 4 and 0
same,paralyzed (number of animals),C. elegans [1]; 15uM,2 and 0 and 4
same,"any phene: mean % fraction of young adults exhibiting any phenotype (coiled, jerky-Unc or paralyzed)",C. elegans [1]; 15uM,80%
same,atypical locomotion (number of animals),C. elegans [1]; 60uM,0 and 17 and 18
same,coiled (number of animals),C. elegans [1]; 60uM,19 and 12 and 13 and 3 and 2
same,no phene (number of animals),C. elegans [1]; 60uM,0
same,paralyzed (number of animals),C. elegans [1]; 60uM,1 and 8 and 7 and 0
same,"any phene: mean % fraction of young adults exhibiting any phenotype (coiled, jerky-Unc or paralyzed)",C. elegans [1]; 60uM,100%
same,EC50,C. elegans [1],6.8 ± 4.1 µM
same,"mean % any phene (coiled, jerky-Unc or paralyzed)","Pristionchus pacificus; conc 3.75, observed at one hour",12.5%
same,"mean % any phene (coiled, jerky-Unc or paralyzed)","Pristionchus pacificus; conc 15, observed at one hour",9.167%
same,"mean % any phene (coiled, jerky-Unc or paralyzed)","Pristionchus pacificus; conc 60, observed at one hour",88.3333%
same,EC50,Pristionchus pacificus,31.2 ± 9.6 µM
same,"% effect (motility), DIROIM MF",[2]; 0.016 µM,0%
same,"% effect (motility), DIROIM MF",[2]; 0.08 µM,0%
same,"% effect (motility), DIROIM MF",[2]; 0.4 µM,0%
same,"% effect (motility), DIROIM MF",[2]; 2 µM,0%
same,"% effect (motility), DIROIM MF",[2]; 10 µM,40%
same,EC50,[2],11 µM
same,"% effect (motility), DIROIM L4",[3]; 2 µM,0%
same,"% effect (motility), DIROIM L4",[3]; 10 µM,0%
same,"% effect (motility), DIROIM L4",[3]; 50 µM,20%
O=[N+]([O-])c1ccc(N2CCN(C3CCCCC3)CC2)cc1 [Nemacol-64],atypical locomotion (number of animals),C. elegans [1]; 3.75uM,18 and 13 and 2 and 10 and 6
same,coiled (number of animals),C. elegans [1]; 3.75uM,2 and 5 and 16 and 1 and 3
same,no phene (number of animals),C. elegans [1]; 3.75uM,0 and 2 and 1 and 8 and 11
same,paralyzed (number of animals),C. elegans [1]; 3.75uM,0 and 2 and 1
same,"any phene: mean % fraction of young adults exhibiting any phenotype (coiled, jerky-Unc or paralyzed)",C. elegans [1]; 3.75uM,81.6667%
same,atypical locomotion (number of animals),C. elegans [1]; 15uM,11 and 10 and 4 and 3 and 16 and 14
same,coiled (number of animals),C. elegans [1]; 15uM,9 and 8 and 15 and 14 and 3 and 2
same,no phene (number of animals),C. elegans [1]; 15uM,0 and 2
same,paralyzed (number of animals),C. elegans [1]; 15uM,0 and 2 and 1 and 3
same,"any phene: mean % fraction of young adults exhibiting any phenotype (coiled, jerky-Unc or paralyzed)",C. elegans [1]; 15uM,96.746%
same,atypical locomotion (number of animals),C. elegans [1]; 60uM,3 and 2 and 8 and 1 and 0
same,coiled (number of animals),C. elegans [1]; 60uM,14 and 16 and 3 and 0 and 7 and 5
same,no phene (number of animals),C. elegans [1]; 60uM,0
same,paralyzed (number of animals),C. elegans [1]; 60uM,3 and 2 and 14 and 12 and 15
same,"any phene: mean % fraction of young adults exhibiting any phenotype (coiled, jerky-Unc or paralyzed)",C. elegans [1]; 60uM,100%
same,EC50,C. elegans [1],1.6 ± 2.8 µM
same,EC50,Pristionchus pacificus,14.3 µM
same,mean % any phene,Pristionchus pacificus; conc 3.75,0%
same,rep 1 atypical locomotion,Pristionchus pacificus; conc 3.75,0
same,rep 1 coiled,Pristionchus pacificus; conc 3.75,0
same,rep 1 no phene,Pristionchus pacificus; conc 3.75,20
same,rep 1 paralyzed,Pristionchus pacificus; conc 3.75,0
same,rep 2 atypical locomotion,Pristionchus pacificus; conc 3.75,0
same,rep 2 coiled,Pristionchus pacificus; conc 3.75,0
same,rep 2 no phene,Pristionchus pacificus; conc 3.75,20
same,rep 2 paralyzed,Pristionchus pacificus; conc 3.75,0
same,rep 3 atypical locomotion,Pristionchus pacificus; conc 3.75,0
same,rep 3 coiled,Pristionchus pacificus; conc 3.75,0
same,rep 3 no phene,Pristionchus pacificus; conc 3.75,20
same,rep 3 paralyzed,Pristionchus pacificus; conc 3.75,0
same,mean % any phene,Pristionchus pacificus; conc 15,70.8333%
same,rep 1 atypical locomotion,Pristionchus pacificus; conc 15,10 and 14
same,rep 1 no phene,Pristionchus pacificus; conc 15,7 and 5
same,rep 1 paralyzed,Pristionchus pacificus; conc 15,0
same,rep 2 atypical locomotion,Pristionchus pacificus; conc 15,14 and 12
same,rep 2 no phene,Pristionchus pacificus; conc 15,5 and 8
same,rep 2 paralyzed,Pristionchus pacificus; conc 15,0
same,rep 3 atypical locomotion,Pristionchus pacificus; conc 15,15 and 12
same,rep 3 coiled,Pristionchus pacificus; conc 15,2 and 1
same,rep 3 paralyzed,Pristionchus pacificus; conc 15,0
same,mean % any phene,Pristionchus pacificus; conc 60,100%
same,rep 1 atypical locomotion,Pristionchus pacificus; conc 60,2 and 1
same,rep 1 coiled,Pristionchus pacificus; conc 60,8 and 12
same,rep 1 no phene,Pristionchus pacificus; conc 60,0
same,rep 1 paralyzed,Pristionchus pacificus; conc 60,10 and 7
same,rep 2 atypical locomotion,Pristionchus pacificus; conc 60,0
same,rep 2 coiled,Pristionchus pacificus; conc 60,9 and 11
same,rep 2 no phene,Pristionchus pacificus; conc 60,0
same,rep 2 paralyzed,Pristionchus pacificus; conc 60,11 and 9
same,rep 3 coiled,Pristionchus pacificus; conc 60,10 and 11
same,rep 3 no phene,Pristionchus pacificus; conc 60,0
same,rep 3 paralyzed,Pristionchus pacificus; conc 60,7 and 8
same,"% effect (motility), DIROIM MF",[2]; 0.016 µM,0%
same,"% effect (motility), DIROIM MF",[2]; 0.08 µM,0%
same,"% effect (motility), DIROIM MF",[2]; 0.4 µM,0%
same,"% effect (motility), DIROIM MF",[2]; 2 µM,0%
same,"% effect (motility), DIROIM MF",[2]; 10 µM,40%
same,EC50,[2],11 µM
same,"% effect (motility), DIROIM L4",[3]; 2 µM,0%
same,"% effect (motility), DIROIM L4",[3]; 10 µM,0%
same,"% effect (motility), DIROIM L4",[3]; 50 µM,100%
COP(=O)(OC)C(O)C(Cl)(Cl)Cl (stereo not shown) [trichlorfon],EC50,"C. elegans [4]; read-out: EC50 of trichlorfon paralysis, nemacol-1 15 μM",132 ± 34 µM
same,EC50,"C. elegans [4]; read-out: EC50 of trichlorfon paralysis, nemacol-1 30 μM",178 ± 17 µM
same,EC50,"C. elegans [4]; read-out: EC50 of trichlorfon paralysis, nemacol-1 60 μM",138 ± 60 µM
same,EC50,"C. elegans [4]; read-out: EC50 of trichlorfon paralysis, trichlorfon alone",83 ± 7 µM
same,EC50,"C. elegans [4]; read-out: EC50 of trichlorfon paralysis, vesamicol 31.3 μM",102 ± 11 µM
same,EC50,"C. elegans [4]; read-out: EC50 of trichlorfon paralysis, vesamicol 62.5 μM",121 ± 10 µM
same,EC50,"C. elegans [4]; read-out: EC50 of trichlorfon paralysis, vesamicol 125 μM",145 ± 17 µM
same,EC50,"C. elegans [4]; read-out: EC50 of trichlorfon paralysis, vesamicol 250 μM",180 ± 22 µM
same,EC50,"C. elegans [4]; read-out: EC50 of trichlorfon paralysis, vesamicol 500 μM",201 ± 27 µM
same,% para (percentage of animals able to adopt a clear sinusoidal wave pattern upon touch on the nose),"C. elegans [4]; trichlorfon 25 uM, Nemacol-1 0 uM (Nemacol-1 series)",92.8571% and 100%
same,% para (percentage of animals able to adopt a clear sinusoidal wave pattern upon touch on the nose),"C. elegans [4]; trichlorfon 25 uM, vesamicol 0 uM (vesamicol series)",92.8571% and 100%
same,% para (percentage of animals able to adopt a clear sinusoidal wave pattern upon touch on the nose),"C. elegans [4]; trichlorfon 50 uM, Nemacol-1 0 uM (Nemacol-1 series)",85.7143% and 75% and 67.8571%
same,% para (percentage of animals able to adopt a clear sinusoidal wave pattern upon touch on the nose),"C. elegans [4]; trichlorfon 50 uM, vesamicol 0 uM (vesamicol series)",71.4286% and 75% and 96.4286%
same,% para (percentage of animals able to adopt a clear sinusoidal wave pattern upon touch on the nose),"C. elegans [4]; trichlorfon 100 uM, vesamicol 0 uM (vesamicol series)",42.8571% and 50%
same,% para (percentage of animals able to adopt a clear sinusoidal wave pattern upon touch on the nose),"C. elegans [4]; trichlorfon 200 uM, Nemacol-1 0 uM (Nemacol-1 series)",7.143% and 3.571%
same,% para (percentage of animals able to adopt a clear sinusoidal wave pattern upon touch on the nose),"C. elegans [4]; trichlorfon 400 uM, Nemacol-1 0 uM (Nemacol-1 series)",0%
same,% para (percentage of animals able to adopt a clear sinusoidal wave pattern upon touch on the nose),"C. elegans [4]; trichlorfon 400 uM, vesamicol 0 uM (vesamicol series)",0% and 3.571%
same,% para (percentage of animals able to adopt a clear sinusoidal wave pattern upon touch on the nose),"C. elegans [4]; trichlorfon 800 uM, Nemacol-1 0 uM (Nemacol-1 series)",0%
same,% para (percentage of animals able to adopt a clear sinusoidal wave pattern upon touch on the nose),"C. elegans [4]; trichlorfon 800 uM, vesamicol 0 uM (vesamicol series)",0%

# Source: paper PMC10066365, “Nemacol is a small molecule inhibitor of C. elegans vesicular acetylcholine transporter with anthelmintic potential” (Nature Communications, 2023)
